Earlier results as cited in patent US11964949B2, “Substituted phenyloxazolidinones for antimicrobial therapy” (priority 2015, dated 2024).

System: Mycobacterium tuberculosis, including multidrug-resistant (MDR) and extensively drug resistant (XDR) strains
Settings: M. tuberculosis incl. MDR and XDR strains; cited from earlier work

## CC(=O)NC[C@H]1CN(c2ccc(N3CCOCC3)c(F)c2)C(=O)O1 [Linezolid]
  minimum inhibitory concentration (MIC): less than 1 ag/ml
